Experimental findings from patent publication US10160747B2, “Compounds and methods for kinase modulation, and indications therefor” (Plexxikon Inc., priority 2016, dated 2018) are described below.

The structures appear in SMILES notation.

One experiment addresses T1, BA/F3-FLT3-ITD + D835Y (Homo sapiens, UniProt P36888, D835Y, cells depend on it, form not given).
T1 sequence (P36888 with tags, fused parts or gaps INS600HVDFREYEYD/D835Y): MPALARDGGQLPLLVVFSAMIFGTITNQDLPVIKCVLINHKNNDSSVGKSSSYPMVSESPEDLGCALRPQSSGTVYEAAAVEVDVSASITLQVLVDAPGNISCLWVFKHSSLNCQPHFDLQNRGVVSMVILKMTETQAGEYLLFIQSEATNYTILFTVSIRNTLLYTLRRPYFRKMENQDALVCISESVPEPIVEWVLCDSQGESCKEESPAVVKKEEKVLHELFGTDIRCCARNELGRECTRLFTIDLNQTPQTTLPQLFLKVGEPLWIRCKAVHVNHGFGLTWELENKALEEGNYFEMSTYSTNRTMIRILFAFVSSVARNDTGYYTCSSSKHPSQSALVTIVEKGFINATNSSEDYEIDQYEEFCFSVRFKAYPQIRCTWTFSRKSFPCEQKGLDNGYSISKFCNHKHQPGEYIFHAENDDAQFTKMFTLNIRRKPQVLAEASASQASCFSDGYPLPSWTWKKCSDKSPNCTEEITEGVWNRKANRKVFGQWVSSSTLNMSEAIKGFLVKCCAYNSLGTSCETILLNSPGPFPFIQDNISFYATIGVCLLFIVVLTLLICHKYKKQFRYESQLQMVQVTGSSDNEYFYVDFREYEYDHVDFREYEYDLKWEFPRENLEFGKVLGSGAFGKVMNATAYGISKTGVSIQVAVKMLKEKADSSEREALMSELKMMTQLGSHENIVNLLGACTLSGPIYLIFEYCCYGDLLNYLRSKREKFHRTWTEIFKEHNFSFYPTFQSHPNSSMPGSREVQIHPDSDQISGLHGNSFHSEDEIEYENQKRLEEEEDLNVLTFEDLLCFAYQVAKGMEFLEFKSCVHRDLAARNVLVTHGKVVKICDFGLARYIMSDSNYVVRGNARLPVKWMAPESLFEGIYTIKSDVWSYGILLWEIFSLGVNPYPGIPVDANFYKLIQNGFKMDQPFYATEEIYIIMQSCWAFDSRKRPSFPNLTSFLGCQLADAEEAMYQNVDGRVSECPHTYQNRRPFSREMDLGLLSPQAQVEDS
Briefly: Engineered BA/F3 cell growth assay, FLT3 ITD/D835Y. Particulars: 3 d growth. It is filed as cell-based, murine. A digest of the protocol: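 IC50 derived from CellTiter-Glo ATP luminescence after 3 days at 37 °C, 5% CO2, over eight 1:3 dilutions from 1 μM (0.2% DMSO final). Cells: IL-3-independent murine Ba/F3 expressing full-length FLT3 ITD/D835Y, 1×10^4 per well.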

A further experiment deals with CSF1R (Homo sapiens, UniProt P07333). Briefly: CSF1R 100 ATP 8 pt kinase assay (Table 6). It is filed as biochemical. The source says: The following Table 6 provides data indicating FLT3 ITD, D835Y and F691L; c-KIT and CSF1R biochemical and/or cell inhibitory activity for exemplary compounds as described herein.
Sequence of CSF1R (P07333 20-972, species assumed): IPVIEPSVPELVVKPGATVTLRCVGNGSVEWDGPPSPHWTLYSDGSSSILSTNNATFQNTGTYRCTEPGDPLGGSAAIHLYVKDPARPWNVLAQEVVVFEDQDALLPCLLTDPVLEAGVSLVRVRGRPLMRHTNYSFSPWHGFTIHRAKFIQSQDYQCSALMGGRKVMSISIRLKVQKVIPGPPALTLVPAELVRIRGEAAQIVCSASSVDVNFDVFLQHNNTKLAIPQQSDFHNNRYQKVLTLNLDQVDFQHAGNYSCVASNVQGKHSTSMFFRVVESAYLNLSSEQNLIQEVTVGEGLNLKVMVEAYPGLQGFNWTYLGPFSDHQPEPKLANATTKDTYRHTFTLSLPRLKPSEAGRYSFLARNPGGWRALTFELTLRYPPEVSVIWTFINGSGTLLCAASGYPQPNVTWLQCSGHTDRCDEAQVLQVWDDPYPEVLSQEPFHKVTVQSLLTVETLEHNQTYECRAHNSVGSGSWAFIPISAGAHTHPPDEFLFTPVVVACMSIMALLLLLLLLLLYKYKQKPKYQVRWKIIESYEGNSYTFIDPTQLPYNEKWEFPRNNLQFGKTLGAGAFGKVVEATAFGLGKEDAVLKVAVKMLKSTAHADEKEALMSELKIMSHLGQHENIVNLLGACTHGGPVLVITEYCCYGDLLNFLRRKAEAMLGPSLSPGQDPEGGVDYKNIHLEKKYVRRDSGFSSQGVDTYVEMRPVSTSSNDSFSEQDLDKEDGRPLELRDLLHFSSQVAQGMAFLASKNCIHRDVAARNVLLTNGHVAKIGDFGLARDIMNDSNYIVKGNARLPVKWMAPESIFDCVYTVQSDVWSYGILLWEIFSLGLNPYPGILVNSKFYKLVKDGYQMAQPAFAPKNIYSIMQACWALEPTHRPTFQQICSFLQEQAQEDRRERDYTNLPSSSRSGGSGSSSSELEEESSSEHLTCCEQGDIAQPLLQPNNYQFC
Experiment [1] has as its system MOLM-14 F691L (endogenous FLT3 ITD and transfected FLT3 F691L). Briefly: MOLM-14 F691L cell proliferation assay (CellTiter-Glo). The class given is cell-based. Particulars: Homo sapiens, MOLM-14, 72 h; 3 d growth, GMean. The procedure, abridged: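 Three-day proliferation at 37 °C/5% CO2 of FLT3-ITD MOLM-14 lines with D835Y or F691L mutation, seeded 1×10^4 per well. Compounds at eight points, top 1 μM final, 0.2% DMSO. ATP luminescence (CellTiter-Glo) gives IC50.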
Background: ATP-based viability assays read luminescence as a measure of living cells.

Usually GI50 stands for the concentration at which growth is held to half of that of the control. Broadly, the IC50 is the concentration that gives 50% inhibition.

`COc1ncc(NC(=O)Cc2ccc(-c3cnc4[nH]nc(C)c4c3)c(F)c2)cc1C(F)(F)F` [Compound P-0174, 2-[3-fluoro-4-(3-methyl-1H-pyrazolo[3,4-b]pyridin-5-yl)phenyl]-N-[6-methoxy-5-(trifluoromethyl)-3-pyridyl]acetamide]: at BA/F3-FLT3-ITD + D835Y, the GI50 was in the range of 0.0001 to 10 µM. At CSF1R, this compound gave a 50% inhibitory concentration (IC50) of 0.0001 to 10 µM.

On to `Cc1ncc(NC(=O)Cc2cc(F)c(-c3cnc4[nH]nc(C)c4c3)cc2F)cc1C(F)(F)F` [Compound P-0175, 2-(2,5-difluoro-4-(3-methyl-1H-pyrazolo[3,4-b]pyridin-5-yl)phenyl)-N-(6-methyl-5-(trifluoromethyl)pyridin-3-yl)acetamide], for which, at BA/F3-FLT3-ITD + D835Y, the concentration for 50% growth inhibition (GI50) was 0.0001 to 10 µM. At CSF1R, this compound had an IC50 of 0.0001 to 10 µM.

On to `Cc1n[nH]c2ncc(-c3ccc(CC(=O)Nc4cncc(C(F)(F)F)c4)cc3F)cc12` [Compound P-0177, 2-[3-fluoro-4-(3-methyl-1H-pyrazolo[3,4-b]pyridin-5-yl)phenyl]-N-[5-(trifluoromethyl)-3-pyridyl]acetamide], for which the GI50 at BA/F3-FLT3-ITD + D835Y was in the range of 0.0001 to 10 µM. For the same compound, on CSF1R, the IC50 lay in the range of 0.0001 to 10 µM.

As to `Cc1n[nH]c2ncc(-c3cc(F)c(CC(=O)Nc4cncc(C(F)(F)F)c4)cc3F)cc12` [Compound P-0173, 2-[2,5-difluoro-4-(3-methyl-1H-pyrazolo[3,4-b]pyridin-5-yl)phenyl]-N-[5-(trifluoromethyl)-3-pyridyl]acetamide], the GI50 at BA/F3-FLT3-ITD + D835Y was in the range of 0.0001 to 10 µM. Moreover, the half-maximal inhibitory concentration (IC50) at CSF1R lay within 0.0001 to 10 µM.

As to `Cn1cc(Nc2ncc(-c3ccc(CC(=O)Nc4ccc(C(F)(F)F)nc4)c(F)c3)cn2)cn1` [Compound P-0110, 2-[2-fluoro-4-[2-[(1-methylpyrazol-4-yl)amino]pyrimidin-5-yl]phenyl]-N-[6-(trifluoromethyl)-3-pyridyl]acetamide], the concentration for 50% growth inhibition (GI50) at BA/F3-FLT3-ITD + D835Y was in the range of 0.0001 to 10 µM. The compound further gave an IC50 in experiment [1] of 0.0001 to 10 µM.

Consider `Cn1cc(Nc2ncc(-c3ccc(CC(=O)Nc4ccc(C(C)(C)C#N)nc4)c(F)c3)cn2)cn1` [Compound P-0108, N-[6-(1-cyano-1-methyl-ethyl)-3-pyridyl]-2-[2-fluoro-4-[2-[(1-methylpyrazol-4-yl)amino]pyrimidin-5-yl]phenyl]acetamide], for which, on BA/F3-FLT3-ITD + D835Y, the GI50 was 0.0001 to 10 µM. Moreover, the IC50 in experiment [1] fell in the range of 0.0001 to 10 µM.

Turning to `COc1ncc(NC(=O)Cc2ccc(-c3cnc(Nc4cn(C)cn4)nc3)cc2)cc1C(F)(F)F` [Compound P-0149, N-[6-methoxy-5-(trifluoromethyl)-3-pyridyl]-2-[4-[2-[(1-methylimidazol-4-yl)amino]pyrimidin-5-yl]phenyl]acetamide], the 50% growth inhibitory concentration (GI50) on BA/F3-FLT3-ITD + D835Y is 0.0001 to 10 µM. This compound yielded a concentration for half-maximal inhibition (IC50) in experiment [1] of 0.0001 to 10 µM.

Regarding `Cn1cc(Nc2ncc(-c3ccc(CC(=O)Nc4ccnc(S(C)(=O)=O)c4)cc3)cn2)cn1` [Compound P-0154, 2-[4-[2-[(1-methylpyrazol-4-yl)amino]pyrimidin-5-yl]phenyl]-N-(2-methylsulfonyl-4-pyridyl)acetamide], at BA/F3-FLT3-ITD + D835Y, the GI50 was 0.0001 to 10 µM. The compound further had an IC50 in experiment [1] of 0.0001 to 10 µM.

Take `Cn1cc(Nc2ncc(-c3ccc(CC(=O)Nc4cc(C(F)(F)F)ncn4)cc3)cn2)cn1` [Compound P-0135, 2-[4-[2-[(1-methylpyrazol-4-yl)amino]pyrimidin-5-yl]phenyl]-N-[6-(trifluoromethyl)pyrimidin-4-yl]acetamide]: the 50% growth inhibitory concentration (GI50) at BA/F3-FLT3-ITD + D835Y was 0.0001 to 10 µM. Besides, in experiment [1], the IC50 fell in the range of 0.0001 to 10 µM.

On to `Cn1cc(Nc2ncc(-c3ccc(CC(=O)Nc4cnc(F)c(C(C)(F)F)c4)cc3)cn2)cn1` [Compound P-0104, N-[5-(1,1-difluoroethyl)-6-fluoro-3-pyridyl]-2-[4-[2-[(1-methylpyrazol-4-yl)amino]pyrimidin-5-yl]phenyl]acetamide], for which the GI50 at BA/F3-FLT3-ITD + D835Y is 0.0001 to 10 µM. In addition, in experiment [1], the IC50 is 0.0001 to 10 µM.

As for `Cc1ncc(NC(=O)Cc2ccc(-c3cnc(Nc4cnn(C)c4)nc3)cc2F)cc1C(F)(F)F` [Compound P-0091, 2-[2-fluoro-4-[2-[(1-methylpyrazol-4-yl)amino]pyrimidin-5-yl]phenyl]-N-[6-methyl-5-(trifluoromethyl)-3-pyridyl]acetamide], the GI50 at BA/F3-FLT3-ITD + D835Y lay within 0.0001 to 10 µM. Besides, the IC50 in experiment [1] is 0.0001 to 10 µM.

Regarding `Cc1ncc(NC(=O)Cc2ccc(-c3cnc(Nc4cn(C)cn4)nc3)cc2)cc1C(F)(F)F` [Compound P-0150, 2-[4-[2-[(1-methylimidazol-4-yl)amino]pyrimidin-5-yl]phenyl]-N-[6-methyl-5-(trifluoromethyl)-3-pyridyl]acetamide], on BA/F3-FLT3-ITD + D835Y, the GI50 fell in the range of 0.0001 to 10 µM. Moreover, the half-inhibitory concentration (IC50) in experiment [1] lay within 0.0001 to 10 µM.
